Reference: PubChem BioAssay AID248 (DTP/NCI, 2004)
“And” between values parts separate entries of the source, which are not always exact repeats. Identical values can stand only once. Toxic doses and inconclusive results are not listed. No stated cut-off is given here; in the data, active means T/C of 150% or more; inactive means T/C below 125%.

System: L1210 leukemia ip in BDF1 mice, survival T/C
Test: NCI In Vivo Anticancer Drug Screen. Data for tumor model L1210 Leukemia (intraperitoneal) in B6D2F1 (BDF1) mice
Conditions: endpoint: mean survival time, higher = longer survival
How it was run: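 Read-out is survival time, reported as the treated-group measurement over the vehicle-control measurement.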

[1] = dose: 100.0 mg/kg/injection, schedule: Q04DX003 (ip), vehicle: saline with Tween-80
[2] = dose: 200.0 mg/kg/injection, schedule: Q04DX003 (ip), vehicle: saline with Tween-80
[3] = dose: 400.0 mg/kg/injection, schedule: Q04DX003 (ip), vehicle: saline with Tween-80
[4] = dose: 100.0 mg/kg/injection, schedule: Q01DX001 (ip), vehicle: saline with Tween-80
[5] = dose: 100.0 mg/kg/injection, schedule: Q01DX009 (ip), vehicle: saline with Tween-80
[6] = dose: 200.0 mg/kg/injection, schedule: Q01DX001 (ip), vehicle: saline with Tween-80
[7] = dose: 200.0 mg/kg/injection, schedule: Q01DX009 (ip), vehicle: saline with Tween-80
[8] = dose: 400.0 mg/kg/injection, schedule: Q01DX001 (ip), vehicle: saline with Tween-80
[9] = dose: 100.0 mg/kg/injection, schedule: Q01DX001 (ip), vehicle: saline
[10] = dose: 200.0 mg/kg/injection, schedule: Q01DX001 (ip), vehicle: saline
[11] = dose: 400.0 mg/kg/injection, schedule: Q01DX001 (ip), vehicle: saline

Measured: T/C

Cc1ccc(S(=O)(=O)N=Nc2c(O)[nH]c3cc(O)c(C(=O)O)cc23)cc1
inactive: dose: 50.0 mg/kg/injection, schedule: Q04DX003 (ip), vehicle: Klucel (hydroxypropylcellulose) (HPC) 103 % of control | dose: 100.0 mg/kg/injection, schedule: Q04DX003 (ip), vehicle: Klucel (hydroxypropylcellulose) (HPC) 92 % of control | [1] 100 % of control | dose: 200.0 mg/kg/injection, schedule: Q04DX003 (ip), vehicle: Klucel (hydroxypropylcellulose) (HPC) 92 % of control and 98 % of control | [2] 110 % of control | dose: 400.0 mg/kg/injection, schedule: Q04DX003 (ip), vehicle: Klucel (hydroxypropylcellulose) (HPC) 95 % of control | [3] 110 % of control

CC(=O)c1sc2sc(C(C)=O)c(NC(=S)Nc3cccc(C(F)(F)F)c3)c2c1NC(=S)Nc1cccc(C(F)(F)F)c1
inactive: dose: 50.0 mg/kg/injection, schedule: Q04DX002 (ip), vehicle: saline with Tween-80 98 % of control and 99 % of control | [4] 96 % of control | [5] 96 % of control and 89 % of control | [1] 93 % of control | [6] 92 % of control | [7] 101 % of control and 86 % of control | [2] 90 % of control | [8] 100 % of control | dose: 400.0 mg/kg/injection, schedule: Q01DX009 (ip), vehicle: saline with Tween-80 96 % of control and 91 % of control

CC(=O)Nc1c(I)c(NC(C)=O)c(I)c(C(=O)O)c1I
inactive: dose: 50.0 mg/kg/injection, schedule: Q01DX009 (ip), vehicle: saline with Tween-80 105 % of control | [5] 99 % of control | [7] 108 % of control

OCCN(CCO)CCN1c2ccccc2Sc2ccccc21
inactive: dose: 5.0 mg/kg/injection, schedule: Q01DX001 (ip), vehicle: saline 95 % of control | dose: 10.0 mg/kg/injection, schedule: Q01DX001 (ip), vehicle: saline 97 % of control | dose: 20.0 mg/kg/injection, schedule: Q01DX001 (ip), vehicle: saline 92 % of control | dose: 40.0 mg/kg/injection, schedule: Q01DX001 (ip), vehicle: saline 95 % of control | dose: 80.0 mg/kg/injection, schedule: Q01DX001 (ip), vehicle: saline 95 % of control | [9] 96 % of control | [10] 112 % of control

O=C(c1ccccc1)C(C(=O)c1ccccc1)C(C[N+](=O)[O-])c1ccccc1 (stereo not drawn)
inactive: dose: 100.0 mg/kg/injection, schedule: Q01DX001 (ip), vehicle: gum acacia 86 % of control | dose: 200.0 mg/kg/injection, schedule: Q01DX001 (ip), vehicle: gum acacia 86 % of control | dose: 400.0 mg/kg/injection, schedule: Q01DX001 (ip), vehicle: gum acacia 90 % of control

COc1ccc(N=CC2CCCCC2=O)c([N+](=O)[O-])c1 (stereo not drawn)
inactive: [9] 106 % of control | [10] 95 % of control | [11] 93 % of control

CC(C)(C)NC(=O)NCc1cccnc1
inactive: dose: 100.0 mg/kg/injection, schedule: Q01DX009 (ip), vehicle: saline sonified 97 % of control | dose: 100.0 mg/kg/injection, schedule: Q04DX003 (ip), vehicle: saline sonified 100 % of control | dose: 200.0 mg/kg/injection, schedule: Q01DX009 (ip), vehicle: saline sonified 100 % of control | dose: 200.0 mg/kg/injection, schedule: Q04DX003 (ip), vehicle: saline sonified 87 % of control | dose: 400.0 mg/kg/injection, schedule: Q01DX009 (ip), vehicle: saline sonified 105 % of control | dose: 400.0 mg/kg/injection, schedule: Q04DX003 (ip), vehicle: saline sonified 94 % of control

C#CC1(OC(=O)NS(=O)(=O)c2ccc(C)cc2)CCCCC1
inactive: [4] 97 % of control | [1] 103 % of control | [6] 101 % of control | [2] 95 % of control | [8] 103 % of control | [3] 101 % of control

CC1COCC(C)N1C1=C(Cl)C(=O)c2ccccc2C1=O (stereo not drawn)
inactive: dose: 12.5 mg/kg/injection, schedule: Q01DX001 (ip), vehicle: carboxymethylcellulose (CMC) 98 % of control | dose: 25.0 mg/kg/injection, schedule: Q01DX001 (ip), vehicle: carboxymethylcellulose (CMC) 98 % of control

CC(C)(CO)C(=O)O
inactive: [9] 101 % of control | [10] 98 % of control | [11] 106 % of control

CC(=O)c1cccc(NC(=O)N2CCN(c3ccccc3)CC2)c1
inactive: [5] 111 % of control | [7] 100 % of control

Fc1c(F)c(F)c(Oc2c(F)c(F)c(Br)c(F)c2F)c(F)c1F
inactive: [4] 88 % of control | [6] 88 % of control | [8] 88 % of control

O=C1C(c2ccccc2)=C(c2ccccc2)C(c2ccccc2)C1c1ccccc1 (stereo not drawn)
inactive: dose: 100.0 mg/kg/injection, schedule: Q04DX002 (ip), vehicle: gum acacia 100 % of control | dose: 200.0 mg/kg/injection, schedule: Q04DX002 (ip), vehicle: gum acacia 87 % of control | dose: 400.0 mg/kg/injection, schedule: Q04DX002 (ip), vehicle: gum acacia 90 % of control

ClC(Cl)(Cl)SN1CCOCC1
inactive: dose: 50.0 mg/kg/injection, schedule: Q01DX009 (ip), vehicle: saline 106 % of control | dose: 100.0 mg/kg/injection, schedule: Q01DX009 (ip), vehicle: saline 95 % of control | dose: 200.0 mg/kg/injection, schedule: Q01DX009 (ip), vehicle: saline 104 % of control

O=[N+]([O-])/C=C\c1cc2ccccc2c2ccccc12
inactive: dose: 100.0 mg/kg/injection, schedule: Q01DX001 (ip), vehicle: carboxymethylcellulose (CMC) 94 % of control | dose: 200.0 mg/kg/injection, schedule: Q01DX001 (ip), vehicle: carboxymethylcellulose (CMC) 94 % of control | dose: 400.0 mg/kg/injection, schedule: Q01DX001 (ip), vehicle: carboxymethylcellulose (CMC) 94 % of control
